ChEMBL document CHEMBL1201862, “PubChem BioAssay data set” (2004)
Activity calls are given as the source filed them.

What was measured:
[1] = THP-1 cell cytotoxicity, dose response, cytotoxicity control for Vif-APOBEC3G degradation inhibitor project, THP-1 cells (AID 1117359); assay type: functional; conditions: Human immunodeficiency virus 1, THP-1
[2] = biological target: T1, Mannose-6-phosphate isomerase (Homo sapiens, UniProt P34949); assay: human PMI inhibitors, high substrate, primary screen, biochemical, fluorescence intensity, high mannose 6-phosphate (AID 1220)
T1 sequence (P34949 whole entry): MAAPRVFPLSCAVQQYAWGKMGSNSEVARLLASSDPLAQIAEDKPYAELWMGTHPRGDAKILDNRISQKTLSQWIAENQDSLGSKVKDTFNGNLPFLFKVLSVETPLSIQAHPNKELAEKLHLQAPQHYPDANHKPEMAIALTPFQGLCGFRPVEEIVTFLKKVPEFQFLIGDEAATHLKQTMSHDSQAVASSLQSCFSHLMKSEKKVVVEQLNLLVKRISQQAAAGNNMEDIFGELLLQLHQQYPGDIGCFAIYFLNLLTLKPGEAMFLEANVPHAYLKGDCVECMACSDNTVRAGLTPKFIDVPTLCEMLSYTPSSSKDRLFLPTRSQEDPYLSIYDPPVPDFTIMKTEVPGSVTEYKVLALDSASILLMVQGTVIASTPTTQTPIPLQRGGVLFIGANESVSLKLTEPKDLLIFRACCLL

[3] = M. tuberculosis H37Rv growth inhibitors, H37Rv strain (AID 1626); assay type: functional
[4] = biological target: T2, Dual specificity protein phosphatase 6 (Rattus norvegicus, UniProt Q64346); assay: MKP-3 phosphatase inhibitors, primary screen, biochemical, rat enzyme, in vitro (AID 425)
T2 sequence (Q64346 whole entry): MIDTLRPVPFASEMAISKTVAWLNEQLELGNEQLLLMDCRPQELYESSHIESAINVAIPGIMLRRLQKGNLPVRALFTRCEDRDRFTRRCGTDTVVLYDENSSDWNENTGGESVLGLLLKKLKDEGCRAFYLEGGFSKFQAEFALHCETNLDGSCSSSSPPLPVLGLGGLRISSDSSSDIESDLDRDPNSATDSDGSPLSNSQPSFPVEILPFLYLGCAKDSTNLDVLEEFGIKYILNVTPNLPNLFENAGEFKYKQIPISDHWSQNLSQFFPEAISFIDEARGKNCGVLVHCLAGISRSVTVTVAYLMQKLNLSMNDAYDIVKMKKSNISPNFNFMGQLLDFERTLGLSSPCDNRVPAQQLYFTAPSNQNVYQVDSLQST

Streptococcus = assay: Group A Streptococcus viability loss, dose response, counter-screen for streptokinase expression inhibitor project, luminescence, BacTiterGlo (AID 1915); assay type: functional, organism-based;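 also: potency for reduction of bacterial viability or growth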
[5] = growth suppression of PTEN-null colon cells, dose response, cell-based, HCT116 PTEN knockout (AID 1047); assay type: functional;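 also: HCT116 colon tumor cells with PTEN knocked out; cells exposed to compound for 60 hours before readout; potency for loss of cell viability measured by luminescence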
[6] = inhibitors of intracellular T. cruzi replication, confirmation, NIH3T3 host cells, beta-gal luminescence (AID 2044); assay type: functional, cell-based;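 also: intracellular parasites grown in NIH/3T3 mouse fibroblasts as host cells; luminescent beta-galactosidase reporter signal from transgenic T. cruzi replicating inside host cells; inhibitors lower the luminescence signal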
[7] = cytotoxicity toward NIH3T3 fibroblasts, dose response, counter-screen, cell-based, ATP luminescence, mouse fibroblasts (AID 2010); assay type: functional;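 also: cells exposed to compound for about 90 hours before reading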
[8] = system: Streptococcus sp. 'group A'; assay: growth inhibition of control SK(-) GAS strain, dose response, counter-screen for streptokinase expression inhibitor project, luminescence, kanamycin, BacTiterGlo, confirmation (AID 1900); assay type: functional, organism-based
[9] = growth suppression of beta-catenin-knockout colon cells, dose response, cell-based, HCT116, human colon tumor (AID 1045); assay type: functional;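 also: HCT116 colon tumor cells with beta catenin knocked out; cells exposed to compound for 60 hours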
[10] = Vero cell cytotoxicity, dose response, cytotoxicity control for Vif-APOBEC3G degradation inhibitor project, Vero cells (AID 1117358); assay type: functional; conditions: Human immunodeficiency virus 1, Vero
[11] = Luminescence Cell-Based Dose Retest to Confirm Inhibitors of Cancer Stem Cells. [Related pubchem assays (depositor defined):AID2717, AID2721]; assay type: functional; conditions: Homo sapiens
Streptokinase A = biological target: T3, Streptokinase A (Streptococcus pyogenes serotype M1, UniProt P10520); assay: S. pyogenes streptokinase expression inhibitors, potency, dose response, plasminogen activation absorbance, OD405 (AID 1914); assay type: functional, Streptococcus pyogenes M1 GAS;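 also: secreted streptokinase activity via plasminogen activation per viability signal from cell pellet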
T3 sequence (P10520 whole entry): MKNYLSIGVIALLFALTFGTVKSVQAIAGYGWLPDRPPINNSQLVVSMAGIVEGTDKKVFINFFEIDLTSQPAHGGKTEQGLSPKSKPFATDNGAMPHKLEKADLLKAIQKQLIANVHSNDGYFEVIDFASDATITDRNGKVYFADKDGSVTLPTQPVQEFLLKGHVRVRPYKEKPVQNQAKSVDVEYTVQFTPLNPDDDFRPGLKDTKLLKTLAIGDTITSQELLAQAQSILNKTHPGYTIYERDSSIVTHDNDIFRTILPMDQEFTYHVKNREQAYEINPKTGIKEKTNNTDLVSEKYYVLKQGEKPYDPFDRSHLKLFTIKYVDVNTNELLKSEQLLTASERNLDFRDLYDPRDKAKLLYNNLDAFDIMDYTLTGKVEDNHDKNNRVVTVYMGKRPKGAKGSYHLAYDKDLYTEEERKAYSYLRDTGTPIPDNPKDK
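For AC50 in this document: cells exposed to compound for roughly 70 hours or longer before luminescence read.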

## COc1ccccc1-n1c(SCC(=O)NCc2ccc3c(c2)OCO3)nc2cc([N+](=O)[O-])ccc21
[1]
  CC50: > 40 µM (active)
[2]
  IC50: > 50 µM (not active)

## Cc1cc(=O)oc2ccc(OC(=O)CC(C)C)cc12
[3]
  IC50: > 100 µM (active)

## O=C(CN(Cc1ccco1)C(=O)CNS(=O)(=O)c1ccc(F)cc1)NCCc1ccccc1
[4]
  IC50: > 100 µM (not active)

## O=C(/C=C/c1ccccc1)NC(NC(=S)Nc1cc(Cl)ccc1Cl)C(Cl)(Cl)Cl (stereo not drawn)
Streptococcus
  EC50: 64.2 µM (active)
[5]
  EC50: 17.3 µM (active)
[6]
  EC50: 1.73 µM (active)
[7]
  EC50: > 60 µM (not active)
[8]
  EC50: 2.43 µM (active)
[9]
  EC50: 16.1 µM (active)
[10]
  CC50: > 40 µM (active)
[11]
  AC50: 0.993 µM (active)
Streptokinase A
  EC50: 4.43 µM (active)
